From patent US12433876B2, “Septin inhibitors for treatment of cancers” (UNIVERSITY OF ROCHESTER, priority 2019, dated 2025)

Legend:
[1] = system: human pancreatic cancer cells (BXPC-3 and PANC-1); experiment: MTS cell viability, pancreatic cancer cells; assay type: cell-based
Description: (§1) Cell Lines, Cell Culture, and Reagents. PANC-1, BXPC-3 and CAPAN-1, SKOV-3, MCF7, MDA-MD-231 cells were obtained from ATCC and maintained in DMEM, RPMI-1640 and IMDM supplemented with 10% fetal calf serum penicillin (100 units/mL), and streptomycin (100 μg/mL) at 37° C. with 5% CO2 in a humidified incubator. JIMT-1 cells were purchased from AddexBio Inc, USA (catalog number: C0006005) and maintained in 10% FBS and antibiotic supplemented DMEM. […] The reaction was monitored using thin-layer chromatography plates with DCM-MeOH or pure ethyl acetate as eluent. Spots were monitored in a UV chamber. […] ICM scores for each compound and their poses were calculated and compared with FCF. […] Cell viability of PANC-1, BXPC-3 and CAPAN-1 pancreatic cancer cells treated with UR214-9 was measured using the Cell Titre96R Aqueous One Solution Cell Proliferation Assay (Promega Corp., catalog number: G3580) following the procedure published earlier. […] The cells were analyzed by a 305 flow cytometer and relative live and dead cell population was calculated by inputting equal number of cells in both vehicle and control group.

JIMT-1 cells = experiment: Live/Dead dye flow cytometry, JIMT-1; assay type: cell-based; settings: JIMT-1, 3 μM, 48 hours, in vitro
Description: as §1

PANC-1 cell line = experiment: RNA-Seq whole transcriptome analysis, PANC-1; assay type: cell-based, human; settings: 10 nM Afatinib, 1 μM UR214-9
septin-2 = target: T1, septin-2 (Homo sapiens, UniProt Q15019); experiment: Immunoblot of septin-2 expression; assay type: cell-based; settings: 48 hours
T1 sequence (Q15019 1-361): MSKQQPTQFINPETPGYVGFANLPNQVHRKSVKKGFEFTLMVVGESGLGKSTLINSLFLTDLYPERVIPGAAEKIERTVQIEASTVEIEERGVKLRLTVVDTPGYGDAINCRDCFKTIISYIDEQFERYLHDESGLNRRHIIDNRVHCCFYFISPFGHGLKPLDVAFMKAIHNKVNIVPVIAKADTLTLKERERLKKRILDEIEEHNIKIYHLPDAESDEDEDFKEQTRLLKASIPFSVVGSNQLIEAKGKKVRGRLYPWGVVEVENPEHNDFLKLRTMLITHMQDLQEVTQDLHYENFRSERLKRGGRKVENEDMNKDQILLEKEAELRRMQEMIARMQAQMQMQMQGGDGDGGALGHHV

actin = experiment: Confocal analysis of actin filaments (Phalloidin-TRITC); assay type: cell-based; settings: PANC-1 and JIMT1 cells, for 48 hours
SKOV-3 xenograft tumors = experiment: SKOV-3 xenograft tumor growth; assay type: in vivo, NSG mice
Description: NSG mice 356 were implanted in their left flank with 1 million PANC-1 (HER2+, n=12), JIMT1 (number of animals=10) and SKOV-3 (number of animals=10) cells each in matrigel:media (1:1). […] The vehicle formulation was: 40% Hydroxypropyl-beta-cyclodextrin [Acros Organics] & solutol HS15 (Sigma] in sterile water). 25 mg/kg equivalent of UR214-9 (1 uL=200 ug in DMSO) was dissolved in 600 uL PBS+400 uL of the vehicle and vortexed to obtain a clear suspension.

septin-9 = experiment: Immunoblot of septin-9 expression; assay type: cell-based; settings: 48 hours
[2] = MDA-MB-231, JIMT-1 and MCF-7 cells, 10 and 30 μM

O=C(Nc1cc(Cl)nc(Cl)c1)Nc1cccc(SC(F)(F)F)c1F [UR214-9]
viability ([1]; BXPC-3 and PANC-1, 72 hours of treatment): reduced the viability | growth (MTS assay), dose dependently ([1]; BXPC-3 and PANC-1, by 48th hour of drug exposure): reduced the growth | cell death (JIMT-1 cells): increased cell death | significantly differentially expressed genes versus control (PANC-1 cell line): no differentially expressed genes | septin-2 protein expression levels (western blot) (septin-2; [2]): does not alter the protein expression levels | septin-2 expression (immunoblot) (septin-2; PANC-1, 1.0 and 10.0 μM): unaffected | actin filaments (actin): actin filament disruption | tumor growth during treatment (SKOV-3 xenograft tumors; UR214-9 25 mg/kg, M-F, I.P., trastuzumab 10 mg/kg, M): controlled the growth of tumors | weight of extracted tumors (SKOV-3 xenograft tumors; day 53 since inoculation): matched the average size seen in vehicle group | tumor size after treatments were stopped (SKOV-3 xenograft tumors; treatment stopped on day 27): reached the average size in control | septin-9 protein expression levels (western blot) (septin-9; [2]): does not alter the protein expression levels | septin-9 expression (immunoblot) (septin-9; PANC-1, 1.0 and 10.0 μM): completely inhibited
